Patent US11066630B2, “Device and method for analysis of tissue constructs” (The Johns Hopkins University, priority 2015, dated 2021)

Columns and labels:
[1] = system: ASM cells in lung-chip; experiment: Cell rheology measurements using the lung-chip platform (frequency-domain OMTC); format: cell-based, human; details: frequency-domain OMTC on lung-chip
Source text: (§1) Magnetic twisting cytometry with optical detection was used to quantitatively assess dynamic changes in cell stiffness as an indicator of single-cell contraction or relaxation of HASM cells, as previously described. In brief, ferrimagnetic microbeads (4.5 μm in diameter) coated with synthetic Arg-Gly-Asp (RGD) containing peptide (American Peptide Company) bound to the cytoskeleton through cell surface integrin receptors were magnetized horizontally. Subsequently, a vertically aligned homogeneous magnetic field varying sinusoidally in time applied an oscillatory torque, leading to both a rotation and a pivoting displacement of the bead (FIG. 18B). Measurements were performed at a single frequency of 0.75 Hz or oscillatory frequencies between 10^−1 and 10^3 Hz for cell rheology measurements (FIG. 21). Lateral bead displacements in response to the resulting oscillatory torque were detected optically (in spatial resolution of ˜5 nm), and the ratio of specific torque to bead displacement was computed as the cell stiffness in units of Pascals (Pa) per nanometer. For drug-induced single-cell contraction or relaxation, changes in HASM stiffness were measured in real-time for the duration of 300 seconds. For each individual cell, the baseline stiffness was measured for the first 60 seconds, and after drug addition, the stiffness was measured continuously for the next 240 seconds.

[2] = system: airway epithelial cells; experiment: Gene expression analysis (TaqMan real-time PCR) in airway epithelial cells; format: cell-based, human
Description: Primary human epithelial and smooth muscle cells were harvested from the proximal airways (first through third order bronchi) of donor lungs unsuitable for transplantation (Table I) in accordance with the Institutional Review Boards at the University of Pennsylvania. Primary normal human bronchial epithelial (NHBE) cells were grown in collagen-coated flasks (GIBCO) using serum-free BEGM Bronchial Epithelial Cell Growth Medium™ with BulletKit™ Supplements (Lonza) and subsequently trypsinized and seeded onto porous polycarbonate membranes (either inside microfluidic devices or on transwell inserts) at 100,000 cells/cm^2. The polycarbonate membranes were coated with collagen type I (30 μg/ml; GIBCO) at 37° C. for 18 h before cell seeding. After NHBE cells reached confluence (within 3-5 days), the apical medium was removed and the basal medium was replaced with differentiation medium (PneumaCult-ALI™ Medium and Supplements, StemCell Technologies). The NHBE cells were maintained at the ALI for 2-3 weeks, until they differentiated into a pseudostratified layer. Excess mucus on the air side was washed away with warm PBS weekly. After NHBE differentiation in the microfluidic chips, primary HASM cells were seeded into the bottom compartment. Approximately 18 h before the live-cell micromechanical experiments using MTC, the culture medium of HASM cells was changed to serum-free minimal media (1:1 vol/vol mixture of DMEM Dulbecco's modified Eagle's medium and Ham's F-12 medium, supplemented with insulin […]), and cells were maintained at 37° C. in humidified air containing 5% CO2. The overnight media was then washed and replaced with fresh minimal media before the experiments. This minimal media procedure was applied to NHBE cells as well before compressive-stress application. […]

[3] = system: primary human airway epithelial cells (NHBE); readout on HASM cells; experiment: ASM cell contraction (OMTC stiffness) in response to infranatant from drug-treated epithelial cells exposed to compressive stress; format: cell-based; details: epithelial cells treated with drug; 30 cmH2O, 0h vs 3h pressure
Description: (§2) Primary human epithelial and smooth muscle cells were harvested from the proximal airways (first through third order bronchi) of donor lungs unsuitable for transplantation (Table I) in accordance with the Institutional Review Boards at the University of Pennsylvania. Primary normal human bronchial epithelial (NHBE) cells were grown in collagen-coated flasks (GIBCO) using serum-free BEGM Bronchial Epithelial Cell Growth Medium™ with BulletKit™ Supplements (Lonza) and subsequently trypsinized and seeded onto porous polycarbonate membranes (either inside microfluidic devices or on transwell inserts) at 100,000 cells/cm^2. The polycarbonate membranes were coated with collagen type I (30 μg/ml; GIBCO) at 37° C. for 18 h before cell seeding. After NHBE cells reached confluence (within 3-5 days), the apical medium was removed and the basal medium was replaced with differentiation medium (PneumaCult-ALI™ Medium and Supplements, StemCell Technologies). The NHBE cells were maintained at the ALI for 2-3 weeks, until they differentiated into a pseudostratified layer. Excess mucus on the air side was washed away with warm PBS weekly. […]
Magnetic twisting cytometry with optical detection was used to quantitatively assess dynamic changes in cell stiffness as an indicator of single-cell contraction or relaxation of HASM cells, as previously described. […]

[4] = system: NHBE cells; experiment: PGE2 content of epithelial infranatant (EIA kit); format: cell-based, human; details: epithelial cells with or without compressive stress
Description: as §2, with “seeding.” for “seeding. After NHBE cells reached confluence (within 3-5 days), the apical medium was removed and the basal medium was replaced with differentiation medium (PneumaCult-ALI™ Medium and Supplements, StemCell Technologies). The NHBE cells were maintained at the ALI for 2-3 weeks, until they differentiated into a pseudostratified layer. Excess mucus on the air side was washed away with warm PBS weekly.”
Media from the basal compartments (infranatant) were collected from control samples or after application of 30 cmH2O compressive stress on NHBE cells, and were assayed for the presence of PGE2 using a commercial EIA kit (DetectX™ Prostaglandin E2 High Sensitivity Immunoassay Kit, Arbor Assays, Ann Arbor, Mich.) following the manufacturer's instructions. The absorbance in the samples was measured at 450 nm with a microplate reader (Molecular Devices, Sunnyvale, Calif.). […]

[5] = system: primary ASM cells from asthmatic and non-asthmatic donors; experiment: HASM stiffness measurements: drug-induced single-cell contraction or relaxation, asthmatic vs non-asthmatic ASM cells; format: cell-based, human
Description: Primary human epithelial and smooth muscle cells were harvested from the proximal airways (first through third order bronchi) of donor lungs unsuitable for transplantation (Table I) in accordance with the Institutional Review Boards at the University of Pennsylvania. Primary normal human bronchial epithelial (NHBE) cells were grown in collagen-coated flasks (GIBCO) using serum-free BEGM Bronchial Epithelial Cell Growth Medium™ with BulletKit™ Supplements (Lonza) and subsequently trypsinized and seeded onto porous polycarbonate membranes (either inside microfluidic devices or on transwell inserts) at 100,000 cells/cm^2. The polycarbonate membranes were coated with collagen type I (30 μg/ml; GIBCO) at 37° C. for 18 h before cell seeding. After NHBE cells reached confluence (within 3-5 days), the apical medium was removed and the basal medium was replaced with differentiation medium (PneumaCult-ALI™ Medium and Supplements, StemCell Technologies). The NHBE cells were maintained at the ALI for 2-3 weeks, until they differentiated into a pseudostratified layer. Excess mucus on the air side was washed away with warm PBS weekly. After NHBE differentiation in the microfluidic chips, primary HASM cells were seeded into the bottom compartment. Approximately 18 h before the live-cell micromechanical experiments using MTC, the culture medium of HASM cells was changed to serum-free minimal media (1:1 vol/vol mixture of DMEM Dulbecco's modified Eagle's medium and Ham's F-12 medium, supplemented with insulin […]), and cells were maintained at 37° C. in humidified air containing 5% CO2. The overnight media was then washed and replaced with fresh minimal media before the experiments. This minimal media procedure was applied to NHBE cells as well before compressive-stress application. For experiments involving Celecoxib or Verteporfin (Sigma Aldrich), NHBE cells were pre-treated with the drugs before the second washing step, as the presence of Celecoxib in the infranatant affected HASM mechanics (FIGS. 19A-B), and Verteporfin in the infranatant would have phototoxic effects on HASM cells during the live-cell micromechanical measurements. Since Verteporfin is a photosensitizer, treatment of NHBE cells was always performed in the dark.
as §1, with “Subsequently, a vertically aligned homogeneous magnetic field varying sinusoidally in time applied an oscillatory torque, leading to both a rotation and a pivoting displacement of the bead (FIG. 18B). Measurements were performed at a single frequency of 0.75 Hz or oscillatory frequencies between 10^−1 and 10^3 Hz for cell rheology measurements (FIG. 21).” left out

[6] = system: ASM cells in lung-chip co-culture with airway epithelial cells; experiment: Lung-chip: ASM contraction after compressive stress on the epithelial layer (OMTC); format: cell-based, human; details: after 30 cmH2O compressive stress; 10 μM methacholine, followed by 1 μM PGE2
Description: The upper and lower layer of the microfluidic device were fabricated using standard soft lithography techniques by casting a flexible and optically transparent polydimethylsiloxane (PDMS) polymer on a mold and cross-linking at 80° C. for 2 hours. The mold was fabricated using optical lithography with an epoxy-based negative photoresist (SU8) that yields thick and robust structures. The two PDMS layers each had compartments with 5 mm width, 20 mm length, and 300 μm height, and around 100 support pillars with 200 μm diameter distributed across the compartments. The two compartments were separated by an optically-clear polycarbonate membrane (Sterlitech) with 5 μm diameter holes, allowing cells on both sides of the membranes to chemically interact. To construct the complete chip, first a PDMS layer and the polycarbonate membrane were exposed to an oxygen plasma (30 W, 700 mTorr, 30 sec) to chemically activate their surfaces. Immediately after the plasma treatment, the PDMS surface was silanized using 5 μl of an APTES solution (1% 3-aminopropyltriethoxysilane in water) and the polycarbonate membrane was allowed to bond to it. After 2 hours of bonding at room temperature, the process was repeated to bond the second PDMS compartment to the other side of the polycarbonate membrane. […]

C=C1[C@@H](C)[C@H]2[C@H](Cc3ccccc3)NC(=O)[C@]23[C@H](OC(C)=O)/C=C/[C@@](C)(O)C(=O)[C@@H](C)C/C=C/[C@H]3[C@@H]1O [cytochalasin D]
ASM cell stiffness [1]: reduces ASM cell stiffness
Stress relaxation of ASM cells [1]: easier (faster) for the cells to relax stress

Verteporfin
COX2 (PTGS2) mRNA expression ([2]; airway epithelial cells): downregulated COX2
Regulation of COX1 and COX2 mRNA by compressive stress ([2]; airway epithelial cells, compressive stress): prohibited the downregulation of COX1 and upregulation of COX2 by compressive stress
Upregulation of CTGF mRNA by compressive stress ([2]; epithelial cells): this upregulation was abrogated
Effect of compressive stress on epithelial cells, read as ASM cell contraction in response to 0h and 3h-pressure epithelial samples [3]: abrogated the effects of compressive stress
PGE2 content of the infranatants [4]: less PGE2 production and suppression of the effects of compressive stress

CC(C)NCC(O)c1ccc(O)c(O)c1 (stereo not shown) [isoproterenol]
Stiffness change (contraction or relaxation), asthmatic compared with non-asthmatic ASM cells [5]: less relaxation in asthmatic ASM cells

CCCCC[C@H](O)/C=C/[C@@H]1[C@@H](C/C=C\CCCC(=O)O)[C@@H](O)C[C@H]1O [PGF2α]
Stiffness change (contraction or relaxation), asthmatic compared with non-asthmatic ASM cells [5]: did not yield a difference in response between asthmatic and non-asthmatic ASM cells

CCCCC[C@H](O)/C=C/[C@H]1[C@H](O)CC(=O)[C@@H]1C/C=C\CCCC(=O)O [PGE2]
Stiffness change (contraction or relaxation), asthmatic compared with non-asthmatic ASM cells [5]: asthmatic ASM cells relaxed more
ASM response to agonist ([5]; different doses and different patient samples): consistently caused ASM relaxation
ASM contraction in lung-chip after pressure turned off [6]: did not lead to relaxation

CC(=O)OC(C)C[N+](C)(C)C (stereo not shown) [methacholine]
Stiffness change (contraction or relaxation), asthmatic compared with non-asthmatic ASM cells [5]: stronger contraction in asthmatic ASM cells
ASM contraction in lung-chip after pressure turned off [6]: only slightly increased ASM contraction

NCCc1c[nH]cn1 [Histamine, histamine]
ASM cell stiffness [1]: increases ASM cell stiffness
Stress relaxation of ASM cells [1]: more difficult (slower) for the cells to relax stress
